This series relates to S1-M1-3.2 cells. The conditions noted are these: for Toxicity (>20%): compound alone, concentration that causes greater than 20% cell death of S1-M1-3.2 cells; for IC50: read-out: IC50 (μM), resensitizing S1-M1-3.2 cells to mitoxantrone, with 3.2 μM mitoxantrone, 50% cancer cell death; for Per Cent Survival with 3.2 μM mitoxantrone / Per Cent Survival Alone: S1-M1-3.2 cells; for Per Cent Survival Alone: 3 days. The method, then:
One of the first reported molecules with reversing activity was verapamil, a calcium channel blocker. […] Cells were plated into 96-well dishes (100 μl/well) in growth medium supplemented with 5% FBS. […] Reversal agents were tested from 0.1-80 μM (triplicate points per dose). In parallel wells, cells were grown in the presence of the reversal agent alone.
The Difference Score is the difference in the percentage of cells surviving when the drug was given alone minus the percentage of cells surviving when the drug was given along with the antitumor agent.
Cell survival was estimated using the Sulforhodamine (SRB) assay.

Where two headings read alike, the source gives them in different places.

For orientation: IC50 means the concentration that inhibits the measured activity by half. Consider `O=C1[C@@H]2Cc3c([nH]c4ccccc34)[C@H](CCCCCc3ccccc3)N2C(=O)[C@@H]2CCCN12` [Example 23b, (5aS,12S,14aS)-12-(5-phenylpentyl)-1,2,3,5a,6,11,12,14a-octahydro-5H,14H-pyrrolo[1″,2″:4′,5′]pyrazino[2′,1′:6,1]pyrido[3,4-b]indole-5,14-dione], for which the “Toxicity (>20%)” value is above 80 µM and the IC50 was 3 µM.

For `C[C@H]1c2[nH]c3ccccc3c2C[C@H]2C(=O)N3CCC[C@H]3C(=O)N21` [Example 26, (5aS,12S,14aS)-12-methyl-1,2,3,5a,6,11,12,14a-octahydro-5H,14H-pyrrolo[1″,2″:4′,5′]pyrazino[2′,1′:6,1]pyrido[3,4-b]indole-5,14-dione], the “Toxicity (>20%)” value is above 80.0 µM and the IC50 is 7 µM.

For `CC(C)CC1c2[nH]c3ccccc3c2CC2C(=O)N3CCCCC3C(=O)N21` [Example 18b, (6aS,13S,15aS)-13-isobutyl-1,2,3,4,6a,7,12,13,15a-nonahydro-6H,15H-pyrido[1″,2″:4′,5′]pyrazino[2′,1′:6,1]pyrido[3,4-b]indole-6H,15H-dione], the “Toxicity (>20%)” value amounted to 25.0 µM and the IC50 came out at 1.5 µM.

Turning to `CC(C)CC1c2[nH]c3ccccc3c2CC2C(=O)N3CCCCC3C(=O)N21` [Example 19a, (6aR,13R,15aS)-13-isobutyl-1,2,3,4,6a,7,12,13,15a-nonahydro-6H,15H-pyrido[1″,2″:4′,5′]pyrazino[2′,1′:6,1]pyrido[3,4-b]indole-6H,15H-dione], the “Toxicity (>20%)” value is 50.0 µM and the IC50 was 11 µM.

Regarding `COc1ccc(CCN(C)CCCC(C#N)(c2ccc(OC)c(OC)c2)C(C)C)cc1OC` (centres unmarked) [Verapamil, reference compound], the “reversal activity in S1-M1-3.2 cells (in words)” value is “not reversed”. For the same compound, the “Per Cent Survival with 3.2 μM mitoxantrone” value (drug 0.1 μM) worked out at 98 ± 0 Per Cent. The “Per Cent Survival Alone” value (drug 0.1 μM alone) was 100 ± 1 Per Cent. Also, the “Per Cent Survival with 3.2 μM mitoxantrone” value (drug 0.5 μM) worked out at 98 ± 1 Per Cent. The “Per Cent Survival Alone” value (drug 0.5 μM alone) turned out to be 99 ± 1 Per Cent. Also, the “Per Cent Survival with 3.2 μM mitoxantrone” value (drug 1 μM) stood at 98 ± 1 Per Cent. Further, under “drug 1 μM alone”, the “Per Cent Survival Alone” value amounted to 97 ± 2 Per Cent. Further, the “Per Cent Survival with 3.2 μM mitoxantrone” value (drug 5 μM) came to 97 ± 0 Per Cent. In addition, the “Per Cent Survival Alone” value (drug 5 μM alone) is reported as 98 ± 5 Per Cent. Further, the “Per Cent Survival with 3.2 μM mitoxantrone” value (drug 10 μM) is recorded as 94 ± 0 Per Cent. In addition, the “Per Cent Survival Alone” value (drug 10 μM alone) amounted to 103 ± 4 Per Cent. Besides, the “Per Cent Survival with 3.2 μM mitoxantrone” value (drug 20 μM) came to 93 ± 2 Per Cent. In addition, the “Per Cent Survival Alone” value (drug 20 μM alone) came to 99 ± 4 Per Cent. Besides, the “Per Cent Survival with 3.2 μM mitoxantrone” value (drug 40 μM) was 83 ± 3 Per Cent. Moreover, the “Per Cent Survival Alone” value (drug 40 μM alone) is recorded as 93 ± 6 Per Cent. In addition, the “Per Cent Survival with 3.2 μM mitoxantrone” value (drug 80 μM) was 58 ± 4 Per Cent. Further, the “Per Cent Survival Alone” value (drug 80 μM alone) turned out to be 80 ± 24 Per Cent.

Consider `O=C(NCCC[C@H]1c2[nH]c3ccccc3c2C[C@H]2C(=O)N3CCC[C@H]3C(=O)N21)[C@@H]1CCCN1` [Example 33, (2S)-N-{3-[(5aS,12S,14aS)-5,14-dioxo-2,3,5a,6,11,12,14,14a-octahydro-1H,5H-pyrrolo[1″,2″:4′,5′]pyrazino[2′,1′:6,1]pyrido[3,4-b]indol-12-yl]propyl}pyrrolidine-2-carboxamide], for which the “Toxicity (>20%)” value was above 80 µM and the IC50 is above 80 µM.

In the case of `O=C1[C@@H]2Cc3c([nH]c4ccccc34)CN2C(=O)[C@@H]2CCCN12` [Example 25, (5aS,14aS)-1,2,3,5a,6,11,12,14a-octahydro-5H,14H-pyrrolo[1″,2″:4′,5′]pyrazino[2′,1′:6,1]pyrido[3,4-b]indole-5,14-dione], the “Toxicity (>20%)” value was above 80 µM and the IC50 was found to be 15 µM.

`CC(C)CC1c2[nH]c3ccccc3c2CC2C(=O)N3CCCCC3C(=O)N21` [Example 20b, (6aS,13S,15aR)-13-isobutyl-1,2,3,4,6a,7,12,13,15a-nonahydro-6H,15H-pyrido[1″,2″:4′,5′]pyrazino[2′,1′:6,1]pyrido[3,4-b]indole-6H,15H-dione]: the “Toxicity (>20%)” value came out at 50.0 µM and the IC50 was determined as 2 µM.

On to `CC(C)C[C@H]1c2[nH]c3ccccc3c2C[C@H]2C(=O)N3CCC[C@@H]3C(=O)N21` [Example 16b, (5aS,12S,14aR)-12-isobutyl-1,2,3,5a,6,11,12,14a-octahydro-5H,14H-pyrrolo[1″,2″:4′,5′]pyrazino[2′,1′:6,1]pyrido[3,4-b]indole-5,14-dione], for which the “Toxicity (>20%)” value is above 80.0 µM and the IC50 worked out at 5.5 µM.

As to `CC(C)C[C@@H]1c2[nH]c3ccccc3c2C[C@H]2C(=O)N3CCC[C@@H]3C(=O)N12` [Example 16a, (5aS,12R,14aR)-12-isobutyl-1,2,3,5a,6,11,12,14a-octahydro-5H,14H-pyrrolo[1″,2″:4′,5′]pyrazino[2′,1′:6,1]pyrido[3,4-b]indole-5,14-dione], the “Toxicity (>20%)” value is above 80.0 µM and the IC50 is above 80 µM.

`CC(C)CC1c2[nH]c3ccccc3c2CC2C(=O)N3CCCCC3C(=O)N21` [Example 18a, (6aS,13R,15aS)-13-isobutyl-1,2,3,4,6a,7,12,13,15a-nonahydro-6H,15H-pyrido[1″,2″:4′,5′]pyrazino[2′,1′:6,1]pyrido[3,4-b]indole-6H,15H-dione]: the “Toxicity (>20%)” value amounted to 15.0 µM and the IC50 was determined as 50 µM.

In the case of `CC(=O)NCCC[C@H]1c2[nH]c3ccccc3c2C[C@H]2C(=O)N3CCC[C@H]3C(=O)N21` [Example 30, N-{3-[(5aS,12S,14aS)-5,14-dioxo-2,3,5a,6,11,12,14,14a-octahydro-1H,5H-pyrrolo[1″,2″:4′,5′]pyrazino[2′,1′:6,1]pyrido[3,4-b]indol-12-yl]propyl}Acetamide], the “Toxicity (>20%)” value was above 80 µM and the IC50 was above 80 µM.

In the case of `CC(C)CC1c2[nH]c3ccccc3c2CC2C(=O)N3CCCCC3C(=O)N21` [Example 21a, (6aR,13R,15aR)-13-isobutyl-1,2,3,4,6a,7,12,13,15a-nonahydro-6H,15H-pyrido[1″,2″:4′,5′]pyrazino[2′,1′:6,1]pyrido[3,4-b]indole-6H,15H-dione], the “Toxicity (>20%)” value is 10.0 µM and the IC50 stood at 10.5 µM.

For `CC(C)C[C@@H]1c2[nH]c3ccccc3c2C[C@@H]2C(=O)N3CCC[C@H]3C(=O)N21` [Example 15a, (5aR,12R,14aS)-12-isobutyl-1,2,3,5a,6,11,12,14a-octahydro-5H,14H-pyrrolo[1″,2″:4′,5′]pyrazino[2′,1′:6,1]pyrido[3,4-b]indole-5,14-dione], the “Toxicity (>20%)” value was above 80.0 µM and the IC50 was determined as 35 µM.

Regarding `CC(C)C[C@@H]1c2[nH]c3ccccc3c2C[C@@H]2C(=O)N3CCC[C@@H]3C(=O)N21` [Example 17a, (5aR,12R,14aR)-12-isobutyl-1,2,3,5a,6,11,12,14a-octahydro-5H,14H-pyrrolo[1″,2″:4′,5′]pyrazino[2′,1′:6,1]pyrido[3,4-b]indole-5,14-dione], the “Toxicity (>20%)” value is 50.0 µM and the IC50 amounted to 35 µM.

With `CC(C)C[C@H]1c2[nH]c3ccccc3c2C[C@@H]2C(=O)N3CCC[C@@H]3C(=O)N21` [Example 17b, (5aR,12S,14aR)-12-isobutyl-1,2,3,5a,6,11,12,14a-octahydro-5H,14H-pyrrolo[1″,2″:4′,5′]pyrazino[2′,1′:6,1]pyrido[3,4-b]indole-5,14-dione], the “Toxicity (>20%)” value is above 80.0 µM and the IC50 was determined as 3.5 µM.

The values above are taken from US20020169111A1, “Reversal of multidrug resistance in human colon carcinoma cells” (American Cyanamid Comany, priority 1998, published 2002).
